Measured values reported in patent US20100137275A1 (IPSEN PHARMA S.A.S., priority 2007, published 2010).

Tests used:
[1] = molecular target: T1, purified recombinant Cdc25-C enzyme (MBP-Cdc25C protein) (Homo sapiens, UniProt P30307); experiment: Phosphatase activity of the purified recombinant Cdc25C enzyme (OMFP dephosphorylation, fluorescence); type: biochemical; settings: OMFP 500 μM, 4 hours at 30° C.
T1 construct: made in house
T1 sequence (P30307 1-473): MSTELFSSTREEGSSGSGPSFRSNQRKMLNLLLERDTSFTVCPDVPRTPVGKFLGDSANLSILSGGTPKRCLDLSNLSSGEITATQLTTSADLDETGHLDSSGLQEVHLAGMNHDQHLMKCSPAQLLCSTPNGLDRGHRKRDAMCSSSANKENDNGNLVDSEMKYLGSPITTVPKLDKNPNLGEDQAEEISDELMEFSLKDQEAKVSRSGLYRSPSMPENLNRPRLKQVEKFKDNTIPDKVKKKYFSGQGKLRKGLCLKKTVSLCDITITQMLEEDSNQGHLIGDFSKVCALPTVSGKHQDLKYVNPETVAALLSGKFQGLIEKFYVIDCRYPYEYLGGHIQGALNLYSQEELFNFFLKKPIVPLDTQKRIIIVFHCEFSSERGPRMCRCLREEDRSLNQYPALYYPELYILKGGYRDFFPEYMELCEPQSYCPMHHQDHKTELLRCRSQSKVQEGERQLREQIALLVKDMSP
Procedure: The phosphatase activity of the MBP-Cdc25C protein is evaluated through its dephosphorylation of 3-O-methylfluorescein-phosphate (OMFP) to form 3-O-methylfluorescein (OMF), determining the fluorescence of the reaction product at 475 nm. This assay can be used to identify inhibitors of the recombinant Cdc25 enzyme. The preparation of the MBP-Cdc25C fusion protein is described in patent application PCT WO 01/44467.
The reaction is performed in 384-well plates in a final volume of 50 μl. The MBP-Cdc25C protein (prepared as described hereinabove) is stored in the following elution buffer: 20 mM Tris-HCl pH 7.4; 250 mM NaCl; 1 mM EDTA; 1 mM dithiothreitol (DTT); 10 mM maltose. It is diluted to a concentration of 60 μM in the following reaction buffer: 50 mM Tris-HCl pH 8.2; 50 mM NaCl; 1 mM DTT; 20% glycerol. The background noise is determined using with the buffer without addition of the enzyme. The products are tested at decreasing concentrations from 40 μM. The reaction is initiated by the addition of a solution OMFP to a final concentration of 500 μM (prepared immediately before use from a 12.5 mM stock solution in 100% DMSO (Sigma #M2629)). After 4 hours at 30° C. in a disposable 384-well plate, the fluorescence measured at OD 475 nm is read on a Victor^2 plate reader (EGG-Wallac). The concentration that produces 50% inhibition of the enzyme reaction is calculated from three independent experiments. Only the values that fall within the linear part of the sigmoid curve are used for the linear regression analysis.

Structure (SMILES) | IC50 [1] | melting point
CN(CCNC(=O)NC(C)(C)C)CCNc1cc(N2CCCC2)nc(N2CCCC2)n1 [Example 9, N-(tert-butyl)-N′-{2-[{2-[(2,6-dipyrrolidin-1-ylpyrimidin-4-yl)amino]ethyl}(methyl)amino]ethyl}urea] | ≤ 5 µM | 107 to 109 °C
CCNC(=O)NCCN(C)CCNc1cc(N2CCCC2)nc(N2CCCC2)n1 [Example 18] | ≤ 5 µM | –
CNS(=O)(=O)c1ccc(NC(=S)NCCN(C)CCNc2cc(N3CCCC3)nc(N3CCCC3)n2)cc1 [Example 59, 4-{[({2-[{2-[(2,6-dipyrrolidin-1-ylpyrimidin-4-yl)amino]ethyl}(methyl)amino]ethyl}amino)carbonothioyl]amino}-N-methylbenzenesulfonamide] | ≤ 1 µM | 102 to 104 °C
CN(CCNC(=S)Nc1ccc(Cl)cc1)CCNc1cc(N2CCCC2)nc(N2CCCC2)n1.Cl | – | 211 to 213 °C
CN(CCNC(=S)Nc1ccc(C#N)cc1)CCNc1cc(N2CCCC2)nc(N2CCCC2)n1 [Example 77, N-(4-cyanophenyl)-N′-{2-[{2-[(2,6-dipyrrolidin-1-ylpyrimidin-4-yl)amino]ethyl}(methyl)amino]ethyl}thiourea] | ≤ 1 µM | 107 to 109 °C
S=C(NCCCCCNc1cc(N2CCCC2)nc(N2CCCC2)n1)Nc1ccc(Cl)cc1 [Example 58, N-(4-chlorophenyl)-N′-{5-[(2,6-dipyrrolidin-1-ylpyrimidin-4-yl)amino]pentyl}thiourea] | ≤ 5 µM | 80 to 82 °C
CN(CCN)CCNc1cc(N2CCCC2)nc(N2CCCC2)n1 [Example 1, N-{2-[(2,6-dipyrrolidin-1-ylpyrimidin-4-yl)amino]ethyl}-N-methylethane-1,2-diamine] | ≤ 5 µM | 67 to 69 °C
CN(CCNC(=O)NC1CCCC1)CCNc1cc(N2CCCC2)nc(N2CCCC2)n1 [Example 12, N-cyclopentyl-N′-{2-[{2-[(2,6-dipyrrolidin-1-ylpyrimidin-4-yl)amino]ethyl}(methyl)amino]ethyl}urea] | ≤ 5 µM | 119 to 121 °C
CN(CCNC(=O)NCc1ccco1)CCNc1cc(N2CCCC2)nc(N2CCCC2)n1 [Example 14, N-{2-[{2-[(2,6-dipyrrolidin-1-ylpyrimidin-4-yl)amino]ethyl}(methyl)amino]ethyl}-N′-(2-furylmethyl)urea] | ≤ 1 µM | 103 to 105 °C
CN(CCNC(=O)c1cnc2ccccc2n1)CCNc1cc(N2CCCC2)nc(N2CCCC2)n1 [Example 82, N-{2-[{2-[(2,6-dipyrrolidin-1-ylpyrimidin-4-yl)amino]ethyl}(methyl)amino]ethyl}quinoxaline-2-carboxamide] | – | 146 to 148 °C
O=C(NCCOCCNc1cc(N2CCCC2)nc(N2CCCC2)n1)Nc1ccc(Cl)c(C(F)(F)F)c1 [Example 20, N-[4-chloro-3-(trifluoromethyl)phenyl]-N′-(2-{2-[(2,6-dipyrrolidin-1-ylpyrimidin-4-yl)amino]ethoxy}ethyl)urea] | ≤ 5 µM | 79 to 81 °C
CN(CCNC(=O)Nc1ccc(Cl)c(C(F)(F)F)c1)CCNc1cc(N2CCCC2)nc(N2CCCC2)n1 [Example 7, N-[4-chloro-3-(trifluoromethyl)phenyl]-N′-{2-[{2-[(2,6-dipyrrolidin-1-ylpyrimidin-4-yl)amino]ethyl}(methyl)amino]ethyl}urea] | ≤ 1 µM | –
CNCCCN(C)CCCN(C)c1cc(N2CCCC2)nc(N2CCCC2)n1 [Example 3, N-(2,6-dipyrrolidin-1-ylpyrimidin-4-yl)-N,N′-dimethyl-N′-[3-(methylamino)propyl]propane-1,3-diamine] | ≤ 5 µM | –
CN(C)CCCCCNc1cc(N2CCCC2)nc(N2CCCC2)n1 [Example 5, N′-(2,6-dipyrrolidin-1-ylpyrimidin-4-yl)-N,N-dimethylpentane-1,5-diamine] | ≤ 5 µM | –
CCN(CC)c1cc(NCCN(C)CCNC(=S)Nc2ccc(Cl)cc2)nc(N(CC)CC)n1 [Example 71, N-{2-[(2-{[2,6-bis(diethylamino)pyrimidin-4-yl]amino}ethyl)(methyl)amino]ethyl}-N′-(4-chlorophenyl)thiourea] | ≤ 1 µM | –
CN(CCNC(=S)Nc1ccc(F)cc1F)CCNc1cc(N2CCCC2)nc(N2CCCC2)n1 [Example 40, N-(2,4-difluorophenyl)-N′-{2-[{2-[(2,6-dipyrrolidin-1-ylpyrimidin-4-yl)amino]ethyl}(methyl)amino]ethyl}thiourea] | ≤ 1 µM | 124 to 126 °C
CN(CCNC(=S)Nc1ccc(Cl)cc1)CCNc1cc(N2CCOCC2)nc(N2CCOCC2)n1 [Example 66, N-(4-chlorophenyl)-N′-{2-[{2-[(2,6-dimorpholin-4-ylpyrimidin-4-yl)amino]ethyl}(methyl)amino]ethyl}thiourea] | – | 81 to 83 °C
CCN(CC)CCCCCNc1cc(N2CCCC2)nc(N2CCCC2)n1 [Example 6, N′-(2,6-dipyrrolidin-1-ylpyrimidin-4-yl)-N,N-diethylpentane-1,5-diamine] | ≤ 5 µM | –
CN(CCCNC(=O)Nc1ccc(Cl)c(C(F)(F)F)c1)CCCNc1cc(N2CCCC2)nc(N2CCCC2)n1.Cl | – | 115 to 117 °C

Now from value to compound:

IC50 [1] | melting point | Structure (SMILES)
≤ 1 µM | 120 to 122 °C | CN(CCNC(=NC#N)Nc1ccc(Cl)cc1)CCNc1cc(N2CCCC2)nc(N2CCCC2)n1 [Example 81, N-(4-chlorophenyl)-N″-cyano-N′-{2-[{2-[(2,6-dipyrrolidin-1-ylpyrimidin-4-yl)amino]ethyl}(methyl)amino]ethyl}guanidine]
≤ 5 µM | 116 to 118 °C | CN(CCNC(=S)Nc1ccc(N2CCOCC2)nc1)CCNc1cc(N2CCCC2)nc(N2CCCC2)n1 [Example 32, N-{2-[{2-[(2,6-dipyrrolidin-1-ylpyrimidin-4-yl)amino]ethyl}(methyl)amino]ethyl}-N′-(6-morpholin-4-ylpyridin-3-yl)thiourea]
≤ 5 µM | – | CN(CCCN)CCCNc1cc(N2CCCC2)nc(N2CCCC2)n1 [Example 2, N-(3-aminopropyl)-N′-(2,6-dipyrrolidin-1-ylpyrimidin-4-yl)-N-methylpropane-1,3-diamine]
≤ 5 µM | 117 to 119 °C | CN(CCNC(=S)Nc1ccc(Cl)c(C(F)(F)F)c1)CCNc1cc(N2CCCC2)nc(N2CCCC2)n1 [Example 54, N-[4-chloro-3-(trifluoromethyl)phenyl]-N′-{2-[{2-[(2,6-dipyrrolidin-1-ylpyrimidin-4-yl)amino]ethyl}(methyl)amino]ethyl}thiourea]
≤ 1 µM | 133 to 135 °C | CN(CCNC(=S)Nc1ccc(F)c(F)c1)CCNc1cc(N2CCCC2)nc(N2CCCC2)n1 [Example 67, N-(3,4-difluorophenyl)-N′-{2-[{2-[(2,6-dipyrrolidin-1-ylpyrimidin-4-yl)amino]ethyl}(methyl)amino]ethyl}thiourea]
≤ 5 µM | 171 to 173 °C | COc1ccc(C(=O)NC(=S)NCCN(C)CCNc2cc(N3CCCC3)nc(N3CCCC3)n2)cc1 [Example 80, N-[({2-[{2-[(2,6-dipyrrolidin-1-ylpyrimidin-4-yl)amino]ethyl}(methyl)amino]ethyl}amino)carbonothioyl]-4-methoxybenzamide]
– | 85 to 87 °C | FC(F)(F)c1cc(NC(=S)NCCCCCNc2cc(N3CCCC3)nc(N3CCCC3)n2)ccc1Cl [Example 57, N-[4-chloro-3-(trifluoromethyl)phenyl]-N′-{5-[(2,6-dipyrrolidin-1-ylpyrimidin-4-yl)amino]pentyl}thiourea]
– | 127 to 129 °C | CCN(CCN(C)CCNc1cc(N2CCCC2)nc(N2CCCC2)n1)C(N)=O [Example 18, N-{2-[{2-[(2,6-dipyrrolidin-1-ylpyrimidin-4-yl)amino]ethyl}(methyl)amino]ethyl}-N-ethylurea]
≤ 5 µM | – | NCCCCCNc1cc(N2CCCC2)nc(N2CCCC2)n1 [Example 4, N-(2,6-dipyrrolidin-1-ylpyrimidin-4-yl)pentane-1,5-diamine]
– | 93 to 95 °C | CN(CCNc1cc(N2CCCC2)nc(N2CCCC2)n1)CCN(C(N)=O)[C@@H]1CCc2ccccc2C1 [Example 11, N-{2-[{2-[(2,6-dipyrrolidin-1-ylpyrimidin-4-yl)amino]ethyl}(methyl)amino]ethyl}-N-[(2R)-1,2,3,4-tetrahydronaphthalen-2-yl]urea]
